The values that follow come from paper PMC5483439, “The Effect of Pungent and Tingling Compounds from Piper nigrum L. on Background K^+ Currents” (Frontiers in Pharmacology, 2017).

The test system of assay [1] is background current of mouse trigeminal neurons. In words: Whole-cell patch clamp on cultured mouse trigeminal neurons. In kind it is cell-based. Particulars: 100 μM. The method, then: Trigeminal ganglia neurons were isolated from Swiss CD-1 mice (Charles River Laboratories, Sulzfeld, Germany). All experiments involving animals were carried out in accordance with the European Union Community Council’s guidelines and approved by the competent state office of the Federal Land of Northrhine Westphalia (file number 87-51.04.2010.A180). At postnatal day 2–5, the mice were sacrificed by decapitation. The brain was removed, and both trigeminal ganglia were excised. The ganglia were washed in PBS+/+ (Invitrogen, Karlsruhe, Germany) and collected in Leibovitz Medium (L15, Invitrogen) on ice. The ganglia were transferred to Dulbecco’s modified essential medium (DMEM) containing 0.025% collagenase (type IA, Sigma–Aldrich). The minced ganglia were incubated for 45 min in a humidified atmosphere (37°C, 95% humidity, 6% CO2) before trituration. The cell suspension was centrifuged at 1000 rpm for 4 min at room temperature and the pellet was resuspended in F-12 medium (Invitrogen; 31331-D-MEM/F-12, GlutaMax^TM) supplemented with 10% fetal bovine serum (FBS^TM; Invitrogen), 200 U/mL penicillin and 200 U/mL streptomycin. The cell suspension (50 μL) was then plated on poly L-lysine (0.01%) coated glass coverslips (30 mm, Sarstedt, Nümbrecht, Germany), placed in cell culture dishes (35 mm) and kept in a humidified atmosphere (37°C, 95% humidity, 6% CO2) for 1 h. Subsequently, F-12 medium (2 mL) supplemented with FBS (10%), 200 U/mL penicillin and 200 U/mL streptomycin was added to each dish. The cells were kept in an incubator (37°C, 95% humidity, 6% CO2) until use.
The recordings were performed using the whole-cell configuration of the patch-clamp technique. The cells were maintained in an extracellular recording solution containing 140 mM NaCl, 5 mM KCl, 2 mM MgCl2, 2 mM CaCl2, 10 mM HEPES and 10 mM glucose, pH 7.4. The Ca^2+ and Na^+- free extracellular solution contained: 140 mM NMDG-Cl, 5 mM KCl, 2 mM MgCl2, 5 mM EGTA, 10 mM HEPES, pH 7.4. The patch electrodes were pulled from borosilicate glass (1.2 mm OD × 1.17 mm ID; Harvard apparatus, Edenbridge, Kent, United Kingdom) and fire polished to 2.5–4 MΩ tip resistance using a horizontal pipette puller (Zeitz Instruments, Munich, Germany) to obtain a patch of approximately 1–2 μm diameter. The pipette solution contained 140 mM KCl, 1 mM MgCl2, and 10 mM HEPES, pH 7.4. All recordings were performed at room temperature with an EPC7 amplifier (List-Medical Electronic, Darmstadt, Germany). The capacity and serial resistance were adjusted manually. The substances were applied via a custom-made manifold superfusion device. […] The data were acquired using Pulse software (HEKA, Lambrecht, Germany) and analyzed with PulseFit (HEKA, Lambrecht, Germany). Unless otherwise stated, the data are expressed as the mean ± SEM. […]
(In general: In patch-clamp work, channel activity is measured electrically.)

The target in assay [2] is T1, hKCNK3 (Homo sapiens, UniProt O14649).
T1 construct: expressed in transfected cells; host or cells: Xenopus laevis oocytes injected with cRNA (plasmid pIRES-CD8, gift of Dr. Fabrice Duprat)
T1 sequence (O14649 whole entry): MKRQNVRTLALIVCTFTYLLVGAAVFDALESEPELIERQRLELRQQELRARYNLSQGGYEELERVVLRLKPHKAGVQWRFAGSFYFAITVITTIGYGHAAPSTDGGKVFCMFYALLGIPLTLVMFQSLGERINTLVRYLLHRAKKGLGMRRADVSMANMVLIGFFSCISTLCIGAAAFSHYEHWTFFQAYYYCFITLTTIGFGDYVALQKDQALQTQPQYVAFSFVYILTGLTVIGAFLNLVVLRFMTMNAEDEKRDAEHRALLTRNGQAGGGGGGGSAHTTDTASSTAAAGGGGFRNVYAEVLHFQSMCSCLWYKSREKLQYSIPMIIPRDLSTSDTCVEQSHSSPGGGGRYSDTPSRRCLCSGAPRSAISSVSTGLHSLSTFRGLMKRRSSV
Set-up: method as in Beltrán et al., 2013. Particulars: hKCNK3 in Xenopus oocytes; ref Beltrán et al., 2013; cited from earlier work.

In the case of `O=C(/C=C/C=C/c1ccc2c(c1)OCO2)N1CCCCC1` [1a, piperine], in assay [1] (Na+/Ca2+-free conditions), the “membrane potential change in current clamp” value is listed as “mild depolarization”. In addition, in assay [1] (Na+/Ca2+-free solution, with XE-991, acidic pH, p = 0,00012), the “current inhibition when applied under acidic pH” value is on record as “significantly decreased”. Further, the “decrease in the background current” value in assay [1] (physiological extracellular solution, 13 of 38 neurons, <30 μm diameter) was 19.5 ± 1.8%. In assay [2], the “% of basal activity after saturating concentrations” value is reported as 46 ± 10%.
